The source of these data is US6461865B1, “Calreticulin-deficient cells” (priority 1997, dated 2002).

Holding throughout (type): cell-based, mouse
In one assay the test system is ES cells. Put plainly: Cytosolic calcium measurement (fura-2) in ES cells. Particulars: Ca2+-free medium. As for the experimental part:
It has been reported that calreticulin can regulate inositol 1,4,5-trisphosphate (InsP3)-mediated calcium signaling in Xenopus oocytes^9. To more specifically examine the role of calreticulin in the storage and mobilization of calcium from InsP3-sensitive stores, we challenged ES cells with lysophosphatidic acid (LPA, 100 nM), which induces InsP3 release12 via heterotrimeric G-protein -mediated activation of phospholipase C. […] The magnitude of this transient was indistinguishable in parental and clone 29 cells (FIG. 4b). […] These observations imply that the stores depleted by LPA represent a subset of the thapsigargin-sensitive compartment.
To measure cytosolic free calcium, the cells were loaded with fura-2 by incubation with 0.5-10 μM of the precursor acetoxymethyl ester for 20 min. at 37° C. Fura-2 ratio fluorescence measurements were performed on a Nikon Diaphot TMD microscope (Nikon Canada) equipped with a 100 W Xenon lamp, a shutter/rotating mirror/fiber optic assembly (RatioMaster, Photon Technologies), a Fluor 40x/1.3 oil-immersion objective and a high-sensitivity photometer (D-104, PTI) interfaced to a 386 computer (NEC) via a 12 bit A/D board (Labmaster, National Instruments). […] The intracellular concentration of fura-2 was measured at the isosbestic wavelength (360 nm) and compared to standards. […]

In assay [1] the test system is calreticulin knock-out ES cells. Nature of the assay: Adhesion of calreticulin knock-out ES cells to fibronectin. As for the experimental part:
FIG. 4E Adhesion assays to Fibronectin as in FIG. 6. Where indicated 100 nM LPA or 100 nM Tg and anti-FNR antiserum (10 μg/ml) were added. Open bars, parental ES cells; closed bars, knock-out ES cells. All data are means +/− SEM of at least 3 experiments. It is conceivable that a transient increase in cytosolic [Ca^2+] shortly after integrin ligand binding is an important part of normal receptor post-occupancy events (eg. increases in avidity, cytoskeletal reorganization). To examine this possibility, we tested whether stimulation of down-stream events in integrin ‘outside-in’ signaling within calreticulin-null cells could compensate for their adhesion defect. […] Although not shown in FIG. 4, the response to LPA was dose-dependent. […] Serum-free adhesion assays are described elsewhere^5. 0.5-1 mg/ml GRGDSP [SEQ ID No: 1] or GRGESP [SEQ. ID No: 2] peptide (Gibco/BRL), 10 μg/ml rabbit anti-fibronectin receptor (Gibco/BRL) or 10 μg/ml rat anti-alpha6 (GoH3, AMAC, Inc.) was added where indicated. For flow cytometric analysis of integrin expression, 1×10^6 cells were incubated on ice for 30 min. with primary antibody; anti-FNR, anti-VNR (Gibco/BRL), anti-alpha6 (GoH3) or anti-alpha429 in PBS/0.1% sodium azide/2.0% fetal bovine serum. […] Cells were fixed in PBS/1.0% paraformaldehyde, pelleted, resuspended in PBS and analyzed on a FACScan (Becton Dickinson Immunocytometry Systems).

The test system of a further assay is wild-type ES cells. Nature of the assay: Serum-free cell attachment assay on fibronectin, wild-type ES cells. Particulars: peptide 0.5-1 mg/ml, antiserum 10 μg/ml. As for the experimental part:
The adhesive capacities of the ES cell clones were assessed by quantitative cell attachment assays on fibronectin and laminin under serum-free conditions. […] ES cells lacking calreticulin also were impaired in their ability to adhere to anti-alpha5 beta1 integrin antibodies (FIG. 2a). The heterozygous clone (#34) was generally intermediate in its level of adhesion. None of the clones tested adhered to vitronectin (FIG. 2a). […] To ensure that the observed differences in cell adhesion were not due to differences in the level of expression of the relevant integrins, the cell surface levels of alpha5 beta1, alpha4, alpha6 and alphav beta3 integrins were assessed by flow cytometry. All clones tested expressed similar levels of integrin subunits (FIG. 2c).
Serum-free adhesion assays are described elsewhere^5. 0.5-1 mg/ml GRGDSP [SEQ ID No: 1] or GRGESP [SEQ. ID No: 2] peptide (Gibco/BRL), 10 μg/ml rabbit anti-fibronectin receptor (Gibco/BRL) or 10 μg/ml rat anti-alpha6 (GoH3, AMAC, Inc.) was added where indicated. For flow cytometric analysis of integrin expression, 1×10^6 cells were incubated on ice for 30 min. with primary antibody; anti-FNR, anti-VNR (Gibco/BRL), anti-alpha6 (GoH3) or anti-alpha429 in PBS/0.1% sodium azide/2.0% fetal bovine serum. […] Cells were fixed in PBS/1.0% paraformaldehyde, pelleted, resuspended in PBS and analyzed on a FACScan (Becton Dickinson Immunocytometry Systems).

Take lysophosphatidic acid [LPA]: in the assay on ES cells (100 nM, parental and clone 29 cells), the “Cytosolic [Ca2+]i transient” value is “induced a rapid [Ca2+]i transient”. For the same molecule, the “Adhesion of calreticulin knock-out cells to fibronectin” value in assay [1] (100 nM) is given as “significantly restored”. Moreover, the “Dose dependence of the adhesion response of calreticulin knock-out cells” value in assay [1] (data not shown in FIG. 4) is recorded as “dose-dependent”.
As for `C/C=C(/C)C(=O)O[C@H]1C(C)=C2[C@H]([C@@H]1OC(=O)CCCCCCC)[C@@](C)(OC(C)=O)C[C@H](OC(=O)CCC)[C@@]1(O)[C@H]2OC(=O)[C@@]1(C)O` [thapsigargin], the “Net Ca2+ release after prior LPA” value in the assay with ES cells (added after LPA) is “induced a second, smaller burst of net Ca^2+ release”.
On to GRGDSP [GRGDSP peptides, (Gibco/BRL)], for which the “Wild-type ES cell adhesion to fibronectin” value in the assay on wild-type ES cells was “inhibited adhesion to fibronectin”.
